Test results reported in patent US10053417B2, “Neprilysin inhibitors” (THERAVANCE BIOPHARMA R&D IP, LLC, priority 2013, dated 2018).

Biological target: T1, human NEP (Homo sapiens, UniProt P08473)
T1 construct: purchased R&D Systems, Minneapolis, Minn; 1182-ZN
Experiment: In vitro enzyme inhibition assay, inhibitor potency at human NEP (Assay 1)
Assay type: biochemical
Conditions: recombinant human NEP; fluorogenic peptide substrate 10 μM; 37° C.; values given as ranges
Outline: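 Recombinant human NEP pre-incubated 30 min at 37 °C with compound ([…]), then 10 μM Mca-D-Arg-Arg-Leu-Dap-(Dnp)-OH added in 50 mM HEPES pH 7.5, 100 mM NaCl, 0.01% Tween-20, 10 μM ZnSO4; stopped after 20 min with acetic acid. Fluorescence ex 320/em 405 nm; Ki from nonlinear regression, reported as pKi.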

T1 sequence (P08473 52-750 limits assumed): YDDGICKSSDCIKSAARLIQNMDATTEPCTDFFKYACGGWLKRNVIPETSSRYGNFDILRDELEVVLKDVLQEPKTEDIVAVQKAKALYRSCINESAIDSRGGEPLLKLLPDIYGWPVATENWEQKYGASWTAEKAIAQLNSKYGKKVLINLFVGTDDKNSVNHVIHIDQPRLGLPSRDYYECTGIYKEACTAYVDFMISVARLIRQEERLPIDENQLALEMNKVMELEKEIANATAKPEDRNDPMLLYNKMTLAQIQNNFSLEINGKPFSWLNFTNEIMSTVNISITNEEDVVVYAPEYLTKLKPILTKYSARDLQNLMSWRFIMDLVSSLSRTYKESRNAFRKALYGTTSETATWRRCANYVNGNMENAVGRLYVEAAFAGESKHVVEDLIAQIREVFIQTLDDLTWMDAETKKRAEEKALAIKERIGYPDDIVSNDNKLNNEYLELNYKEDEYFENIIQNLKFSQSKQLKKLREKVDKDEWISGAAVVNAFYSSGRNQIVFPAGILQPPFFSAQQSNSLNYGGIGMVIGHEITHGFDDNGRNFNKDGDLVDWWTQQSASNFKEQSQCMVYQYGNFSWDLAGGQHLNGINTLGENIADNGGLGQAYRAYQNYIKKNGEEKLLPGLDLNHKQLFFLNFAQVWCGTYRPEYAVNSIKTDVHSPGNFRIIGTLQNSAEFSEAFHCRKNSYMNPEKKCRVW

Compound	Ki [nM]
CC(C)OCC(=O)N[C@H](Cc1ccc(-c2cccc(Cl)c2)cc1)C[C@@H](O)C(=O)O [Example 10-4, (2R,4R)-5-(3′-Chlorobiphenyl-4-yl)-2-hydroxy-4-(2-isopropoxyacetylamino)-pentanoic acid]	10 to 31.6
O=C(COCc1ccccc1)N[C@H](Cc1ccc(-c2cccc(Cl)c2)cc1)C[C@@H](O)C(=O)O [Example 10-6, (2R,4R)-4-(2-Benzyloxy-acetylamino)-5-(3′-chlorobiphenyl-4-yl)-2-hydroxy-pentanoic acid]	10 to 31.6
O=C(COc1ccccc1)N[C@H](Cc1ccc(-c2cccc(Cl)c2)cc1)C[C@@H](O)C(=O)O [Example 10-7, (2R,4R)-5-(3′-Chlorobiphenyl-4-yl)-2-hydroxy-4-(2-phenoxyacetylamino)-pentanoic acid]	10 to 31.6
O=C(COc1ccc(O)cc1)N[C@H](Cc1ccc(-c2cccc(Cl)c2)cc1)C[C@@H](O)C(=O)O [Example 10-8, (2R,4R)-5-(3′-Chlorobiphenyl-4-yl)-2-hydroxy-4-[2-(4-hydroxyphenoxy)-acetylamino]-pentanoic acid]	10 to 31.6
COc1cccc(OCC(=O)N[C@H](Cc2ccc(-c3cccc(Cl)c3)cc2)C[C@@H](O)C(=O)O)c1 [Example 10-9, (2R,4R)-5-(3′-Chlorobiphenyl-4-yl)-2-hydroxy-4-[2-(3-methoxyphenoxy)-acetylamino]-pentanoic acid]	10 to 31.6
C[C@@](CO)(C[C@@H](Cc1ccc(-c2cccc(Cl)c2)cc1)NC(=O)COCc1ccccc1)C(=O)O [Example 12, (2S,4R)-4-(2-Benzyloxyacetylamino)-5-(3′-chlorobiphenyl-4-yl)-2-hydroxymethyl-2-methyl-pentanoic acid]	10 to 31.6

Other lines, results leading:

Ki [nM]	Compound
10 to 31.6	CCOCC(=O)N[C@H](Cc1ccc(-c2cccc(Cl)c2)cc1)C[C@@H](O)C(=O)O [Example 10-3, (2R,4R)-5-(3′-Chlorobiphenyl-4-yl)-4-(2-ethoxyacetylamino)-2-hydroxy-pentanoic acid]
1 to 10	O=C(COc1cccnc1)N[C@H](Cc1ccc(-c2cccc(Cl)c2)cc1)C[C@@H](O)C(=O)O [Example 10-5, (2R,4R)-5-(3′-Chlorobiphenyl-4-yl)-2-hydroxy-4-[2-(pyridin-3-yloxy)-acetylamino]-pentanoic acid]
1 to 10	COCC(=O)N[C@H](Cc1ccc(-c2cccc(Cl)c2)cc1)C[C@@](C)(CO)C(=O)O [Example 11, (2S,4R)-5-(3′-Chlorobiphenyl-4-yl)-2-hydroxymethyl-4-(2-methoxy-acetylamino)-2-methylpentanoic Acid]
1 to 10	C[C@@](CO)(C[C@@H](Cc1ccc(-c2cccc(Cl)c2)cc1)NC=O)C(=O)O [Example 13, (2S,4R)-5-(3′-Chlorobiphenyl-4-yl)-4-formylamino-2-hydroxymethyl-2-methyl-pentanoic Acid]
